Results published in US4229435A, “Preparation of blood fraction” (priority 1978, dated 1980).

Key:
Type in all cases: biochemical
F XII = target: T1, F XII (Homo sapiens, UniProt P00748); assay: Coagulation factor XII activity in plasma after reducing agent + iodoacetic acid; settings: 5 min 37° C., then iodoacetic acid
T1 construct: from tissue; host or cells: human citrated blood plasma
T1 sequence (P00748 20-615): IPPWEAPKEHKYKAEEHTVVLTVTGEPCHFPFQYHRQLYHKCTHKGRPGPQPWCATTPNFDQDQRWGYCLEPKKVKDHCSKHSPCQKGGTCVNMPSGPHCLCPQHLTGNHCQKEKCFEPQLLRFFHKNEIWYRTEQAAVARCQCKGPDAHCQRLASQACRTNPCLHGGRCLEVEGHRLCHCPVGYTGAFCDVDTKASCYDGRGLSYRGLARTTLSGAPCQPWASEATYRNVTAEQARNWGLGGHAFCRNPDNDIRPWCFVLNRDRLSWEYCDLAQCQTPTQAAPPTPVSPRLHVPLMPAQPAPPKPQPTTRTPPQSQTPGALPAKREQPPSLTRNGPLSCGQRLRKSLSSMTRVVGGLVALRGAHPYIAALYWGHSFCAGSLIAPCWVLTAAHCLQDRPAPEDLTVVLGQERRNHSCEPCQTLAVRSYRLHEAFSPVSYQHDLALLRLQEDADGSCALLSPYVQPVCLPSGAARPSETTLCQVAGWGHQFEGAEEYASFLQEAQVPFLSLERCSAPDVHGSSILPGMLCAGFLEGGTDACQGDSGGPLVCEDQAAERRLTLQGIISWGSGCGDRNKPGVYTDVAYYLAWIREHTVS
Procedure: Human blood with anti-coagulating agent (9 parts blood+1 part 3.8% trisodium citrate) is centrifuged and the following tests with plasma were carried out:
The plasma is divided into 8 ml portions, which are preheated at 37° C. for 5 min. DTT is added in different concentrations, see table 1 below, and is incubated for 5 min. at 37° C. Then iodoacetic acid, 3 mol per mol DTT, is added, and incubation takes place for 15 min. at 37° C. The plasma samples are distributed in portions of about 0.2 ml and are immediately frozen at -70° C. Testing of different coagulation factors is made in known manner.
(§1) The plasma is divided into 8 ml portions, which are preheated at 37° C. for 5 min. DTE is added in different concentrations (see table 2), and is incubated for 5 minutes at 37° C. Then, iodoacetic acid (3 mol per mol DTE) is added and incubation is carried out for 15 minutes at 37° C. The plasma samples are distributed in portions of about 0.2 ml and are immediately frozen at -70° C. Testing of different coagulation factors is made in a manner known per se.
as §1, with “minutes. Lipoic acid” for “min. DTE”, “3),” for “2),”, “lipoic acid)” for “DTE)”
as §1, with “minutes. Mercaptoethanol” for “min. DTE”, “4),” for “2),”, “mercaptoethanol)” for “DTE)”
as §1, with “minutes. Potassium borohydride” for “min. DTE”, “5,” for “2),”, “potassium borohydride)” for “DTE)”

[1] = tested on: coagulation factors VII, IX, X, XI and XII; assay: Effect of reducing substance added to blood or plasma on coagulation factors; settings: addition to blood
factor IX = assay: Selective decrease of coagulation activity at low temperature (Example 7); settings: 0.2 mg DTT per ml plasma, 22° C.
Procedure: By addition of reducing agent, e.g. 0.2 mg DTT per ml plasma, at a low temperature, e.g. 22° C., it is possible to selectively influence the decrease of the coagulation activity in the different factors.

[2] = human, 0.1 mg reducing agent/ml plasma (sample C)

Compound | Coagulation factor F XII (F XII; plasma + 0.14 mg reducing agent) | Coagulation factor F XII (F XII; plasma + 0.28 mg reducing agent) | activity at 100 µg/mL (F XII; [2]) [%] | activity at 600 µg/mL (F XII; human, 0.6 mg reducing agent/ml plasma) [%] | activity at 100 µg/mL (F XII; human, Table 1 sample D, 0.1 mg DTT/ml plasma) [%] | Coagulation factor F XII (F XII; plasma + 0.4 mg reducing agent) | Coagulation factor F XII (F XII; plasma + 0.2 mg reducing agent) | content of coagulation factors VII, IX, X, XI and XII in the resulting plasma [1] | activity of factor IX compared with factor X (factor IX)
[BH4-].[K+] [KBH4, potassium borohydride] | 86 % of control | 83 % of control | – | – | – | – | – | – | –
O[C@H](CS)[C@H](O)CS [DTT, dithiothreitol] | – | – | 78 | 0 | 18 | 0 % of control | – | reduces the content of the coagulation factors VII, IX, X, XI and XII to a large extent | the activity of factor IX is not influenced in as high a degree as the activity of factor X
O[C@H](CS)[C@@H](O)CS [DTE, dithioerythritol] | – | – | 78 | – | – | 0 % of control | 1 % of control | – | –

Continued, in another order:

Coagulation factor F XII (F XII; plasma + 0.14 mg reducing agent) | Coagulation factor F XII (F XII; plasma + 0.28 mg reducing agent) | activity at 100 µg/mL (F XII; [2]) [%] | activity at 600 µg/mL (F XII; human, 0.6 mg reducing agent/ml plasma) [%] | activity at 100 µg/mL (F XII; human, Table 1 sample D, 0.1 mg DTT/ml plasma) [%] | Coagulation factor F XII (F XII; plasma + 0.4 mg reducing agent) | Coagulation factor F XII (F XII; plasma + 0.2 mg reducing agent) | Compound | content of coagulation factors VII, IX, X, XI and XII in the resulting plasma [1] | activity of factor IX compared with factor X (factor IX)
– | – | – | – | – | 121 % of control | 102 % of control | OCCS [mercaptoethanol] | – | –
– | – | 74 | – | – | 98 % of control | 78 % of control | O=C(O)CCCCC1CCSS1 (stereo not shown) [lipoic acid] | – | –
